Data on 24 compounds can be found in patent US20260374756A1, “HETEROCYCLIC COMPOUNDS AS INHIBITORS OF MONOACYLGLYCEROL LIPASE (MAGL)” (Hoffmann-La Roche Inc., priority 2022, published 2026).

For orientation: IC50 means the concentration that gives 50% inhibition. High values mean a need for much substance, low ones inhibition by little substance.

This assay deals with T1, hMAGL (Homo sapiens, UniProt Q99685).
T1 sequence (Q99685 1-303): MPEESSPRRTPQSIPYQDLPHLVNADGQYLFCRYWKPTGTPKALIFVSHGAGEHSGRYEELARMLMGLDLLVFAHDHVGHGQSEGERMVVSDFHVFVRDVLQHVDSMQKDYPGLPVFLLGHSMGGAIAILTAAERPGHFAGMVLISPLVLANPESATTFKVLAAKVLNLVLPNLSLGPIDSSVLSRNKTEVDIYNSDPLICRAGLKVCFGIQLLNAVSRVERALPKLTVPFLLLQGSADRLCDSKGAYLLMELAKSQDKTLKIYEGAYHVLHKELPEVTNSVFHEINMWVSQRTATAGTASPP
Briefly: 2-AG assay: MAGL inhibition, hydrolysis of 2-arachidonoylglycerol to arachidonic acid followed by mass spectrometry. It counts as biochemical. In a few lines: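 MAGL preincubated with compound 15 min at RT in 50 mM Tris, 1 mM EDTA, 0.01% Tween-20, 2.5% DMSO; reaction started with 8 μM 2-AG (final), […], 30 min at RT. Quenched with acetonitrile containing d8-arachidonic acid; arachidonic acid quantified by RapidFire SPE-triple quad MS as arachidonic acid/d8 ratio.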
Compound `O=C(N1CC2(CC(n3cnc(C4(O)CC4)n3)C2)C1)N1CC2(CN(Cc3nc(C4CC4)ns3)C2)C1` [Example 45, [6-[(3-cyclopropyl-1,2,4-thiadiazol-5-yl)methyl]-2,6-diazaspiro[3.3]heptan-2-yl]-[6-[3-(1-hydroxycyclopropyl)-1,2,4-triazol-1-yl]-2-azaspiro[3.3]heptan-2-yl]methanone] registered an IC50 of 118 nM. Consider `Cn1ncc(CN2CC3(C2)CN(C(=O)N2CC4(CC(n5cnc(C(F)(F)F)n5)C4)C2)C3)c1S(N)(=O)=O` [Example 250, 2-methyl-4-[[2-[6-[3-(trifluoromethyl)-1,2,4-triazol-1-yl]-2-azaspiro[3.3]heptane-2-carbonyl]-2,6-diazaspiro[3.3]heptan-6-yl]methyl]pyrazole-3-sulfonamide], for which the IC50 is 969 nM. As for `Cn1cc(CC2CC3(C2)CN(C(=O)N2CC4(CC(n5cnc(C6(O)CC6)n5)C4)C2)C3)c(C(F)(F)F)n1` [Example 6, [6-[3-(1-hydroxycyclopropyl)-1,2,4-triazol-1-yl]-2-azaspiro[3.3]heptan-2-yl]-[6-[[1-methyl-3-(trifluoromethyl)pyrazol-4-yl]methyl]-2-azaspiro[3.3]heptan-2-yl]methanone], the figure is 4.93 nM. As to `O=C(N1CC2(CC(n3cnc(C4CC4)n3)C2)C1)N1CC2(CN(Cc3cc(C(F)(F)F)ns3)C2)C1` [Example 154, [6-(3-cyclopropyl-1,2,4-triazol-1-yl)-2-azaspiro[3.3]heptan-2-yl]-[6-[[3-(trifluoromethyl)isothiazol-5-yl]methyl]-2,6-diazaspiro[3.3]heptan-2-yl]methanone], it took 2.64 nM to reach half-maximal inhibition (IC50). For the compound `O=C(N1CC2(CC(n3cnc(C4CC4)n3)C2)C1)N1CC2(CN(Cc3cnn(C(F)(F)F)c3)C2)C1` [Example 182, [6-(3-cyclopropyl-1,2,4-triazol-1-yl)-2-azaspiro[3.3]heptan-2-yl]-[6-[[1-(trifluoromethyl)pyrazol-4-yl]methyl]-2,6-diazaspiro[3.3]heptan-2-yl]methanone], the IC50 was found to be 33.9 nM.

In the case of `O=C(N1CC2(CC(Cc3cc(C4(C(F)(F)F)CC4)[nH]n3)C2)C1)N1CC2(CC(n3cnc(C(F)(F)F)n3)C2)C1` [Example 354], it took 0.14 nM to reach half-maximal inhibition (IC50). Compound `O=C(N1CC2(CC(n3cnc(C4CC4)n3)C2)C1)N1CC2(CN(Cc3ncc(C(F)(F)F)s3)C2)C1` [Example 150, [6-(3-cyclopropyl-1,2,4-triazol-1-yl)-2-azaspiro[3.3]heptan-2-yl]-[6-[[5-(trifluoromethyl)thiazol-2-yl]methyl]-2,6-diazaspiro[3.3]heptan-2-yl]methanone] yielded a concentration for half-maximal inhibition (IC50) of 1.52 nM. Regarding `O=C(N1CC2(CCC(Cc3nnc(C(F)(F)F)[nH]3)CC2)C1)N1CC2(CC(n3cnc(C(F)(F)F)n3)C2)C1` [Example 34, [6-[3-(trifluoromethyl)-1,2,4-triazol-1-yl]-2-azaspiro[3.3]heptan-2-yl]-[7-[[5-(trifluoromethyl)-4H-1,2,4-triazol-3-yl]methyl]-2-azaspiro[3.5]nonan-2-yl]methanone], half-maximal inhibition (IC50) was put at 21.8 nM. `Cn1ncc(C(F)(F)F)c1CN1CCC2(CC1)CN(C(=O)N1CC3(CC(n4cnc(C(F)(F)F)n4)C3)C1)C2` [Example 65, [7-[[2-methyl-4-(trifluoromethyl)pyrazol-3-yl]methyl]-2,7-diazaspiro[3.5]nonan-2-yl]-[6-[3-(trifluoromethyl)-1,2,4-triazol-1-yl]-2-azaspiro[3.3]heptan-2-yl]methanone]: the concentration for half-maximal inhibition (IC50) was 0.87 nM. In turn, `O=C(N1CC2(CC(Cc3cn(C4CC4)nc3C(F)(F)F)C2)C1)N1CC2(CC(n3cnc(C(F)(F)F)n3)C2)C1` [Example 61, [6-[[1-cyclopropyl-3-(trifluoromethyl)pyrazol-4-yl]methyl]-2-azaspiro[3.3]heptan-2-yl]-[6-[3-(trifluoromethyl)-1,2,4-triazol-1-yl]-2-azaspiro[3.3]heptan-2-yl]methanone] returned a half-maximal inhibitory concentration (IC50) of 0.26 nM. To `O=C(N1CC2(CC(Cc3nc(C4CC4)n[nH]3)C2)C1)N1CC2(CC(c3cc(C4CC4)n[nH]3)C2)C1` [Example 301, [6-(3-cyclopropyl-1H-pyrazol-5-yl)-2-azaspiro[3.3]heptan-2-yl]-[6-[(3-cyclopropyl-1H-1,2,4-triazol-5-yl)methyl]-2-azaspiro[3.3]heptan-2-yl]methanone] belongs 1.1 nM; to `O=C(N1CC2(CC(Cc3n[nH]c(C4(C(F)(F)F)CC4)n3)C2)C1)N1CC2(CC(n3cnc(C4CC4)n3)C2)C1` [Example 102, [6-(3-cyclopropyl-1,2,4-triazol-1-yl)-2-azaspiro[3.3]heptan-2-yl]-[6-[[5-[1-(trifluoromethyl)cyclopropyl]-1H-1,2,4-triazol-3-yl]methyl]-2-azaspiro[3.3]heptan-2-yl]methanone], 0.58 nM.

Consider `O=C(N1CC2(CC(n3cnc(C(F)(F)F)n3)C2)C1)N1CC2(CN(Cc3nccn3C(F)(F)F)C2)C1` [Example 235, [6-[[1-(trifluoromethyl)imidazol-2-yl]methyl]-2,6-diazaspiro[3.3]heptan-2-yl]-[6-[3-(trifluoromethyl)-1,2,4-triazol-1-yl]-2-azaspiro[3.3]heptan-2-yl]methanone], for which the IC50 stood at 68.7 nM. `O=C(N1CC2(CC(Cc3n[nH]c(C4(C(F)(F)F)CC4)n3)C2)C1)N1CC2(CC(n3cnc(C(F)(F)F)n3)C2)C1` [Example 101, [6-[[5-[1-(trifluoromethyl)cyclopropyl]-1H-1,2,4-triazol-3-yl]methyl]-2-azaspiro[3.3]heptan-2-yl]-[6-[3-(trifluoromethyl)-1,2,4-triazol-1-yl]-2-azaspiro[3.3]heptan-2-yl]methanone]: 0.89 nM corresponded to half-maximal inhibition (IC50). As for `Cn1ncc(C(F)(F)F)c1CN1CCC2(CC1)CN(C(=O)N1CC3(CC(c4cc(C5CC5)n[nH]4)C3)C1)C2` [Example 64, [6-(3-cyclopropyl-1H-pyrazol-5-yl)-2-azaspiro[3.3]heptan-2-yl]-[7-[[2-methyl-4-(trifluoromethyl)pyrazol-3-yl]methyl]-2,7-diazaspiro[3.5]nonan-2-yl]methanone], inhibition was half-maximal at 0.32 nM (IC50). As for `CC(C)(C)c1conc1CN1CC2(C1)CN(C(=O)N1CC3(CC(n4cnc(C5CC5)n4)C3)C1)C2` [Example 256, [6-[(4-tert-butylisoxazol-3-yl)methyl]-2,6-diazaspiro[3.3]heptan-2-yl]-[6-(3-cyclopropyl-1,2,4-triazol-1-yl)-2-azaspiro[3.3]heptan-2-yl]methanone], the figure is 2.79 nM; as for `Cn1cnc(C#N)c1CN1CC2(C1)CN(C(=O)N1CC3(CC(n4cnc(C(F)(F)F)n4)C3)C1)C2` [Example 280, 1-methyl-5-[[2-[6-[3-(trifluoromethyl)-1,2,4-triazol-1-yl]-2-azaspiro[3.3]heptane-2-carbonyl]-2,6-diazaspiro[3.3]heptan-6-yl]methyl]imidazole-4-carbonitrile], 636 nM. On to `O=C(N1CC2(CC(n3cnc(C4CC4)n3)C2)C1)N1CC2(CN(Cc3nc(C(F)(F)F)co3)C2)C1` [Example 217, [6-(3-cyclopropyl-1,2,4-triazol-1-yl)-2-azaspiro[3.3]heptan-2-yl]-[6-[[4-(trifluoromethyl)oxazol-2-yl]methyl]-2,6-diazaspiro[3.3]heptan-2-yl]methanone], for which half-maximal inhibition (IC50) required 13.7 nM. `O=C(N1CC2(CC(n3cnc(C(F)(F)F)n3)C2)C1)N1CC2(CN(Cc3nnc(C(F)(F)F)s3)C2)C1` [Example 82, [6-[[5-(trifluoromethyl)-1,3,4-thiadiazol-2-yl]methyl]-2,6-diazaspiro[3.3]heptan-2-yl]-[6-[3-(trifluoromethyl)-1,2,4-triazol-1-yl]-2-azaspiro[3.3]heptan-2-yl]methanone]: inhibition was half-maximal at 145 nM (IC50). Compared with the last compound, the IC50 is about 11-fold higher. In turn, `O=C(N1CC2(CC(n3cnc(C4CC4)n3)C2)C1)N1CC2(CN(Cc3ccnn3CC(F)(F)F)C2)C1` [Example 223, [6-(3-cyclopropyl-1,2,4-triazol-1-yl)-2-azaspiro[3.3]heptan-2-yl]-[6-[[2-(2,2,2-trifluoroethyl)pyrazol-3-yl]methyl]-2,6-diazaspiro[3.3]heptan-2-yl]methanone] displayed an IC50 of 69.2 nM. As for `Cc1cc(C2CC2)nn1CC1CC2(C1)CN(C(=O)N1CC3(CC(n4cnc(C5(O)CC5)n4)C3)C1)C2` [Example 136, [6-[(3-cyclopropyl-5-methyl-pyrazol-1-yl)methyl]-2-azaspiro[3.3]heptan-2-yl]-[6-[3-(1-hydroxycyclopropyl)-1,2,4-triazol-1-yl]-2-azaspiro[3.3]heptan-2-yl]methanone], the IC50 was determined as 5.53 nM.

In turn, `O=C(N1CC2(CC(Cn3cc(C4(C(F)(F)F)CC4)cn3)C2)C1)N1CC2(CC(n3cnc(C4(O)CC4)n3)C2)C1` [Example 60, [6-[3-(1-hydroxycyclopropyl)-1,2,4-triazol-1-yl]-2-azaspiro[3.3]heptan-2-yl]-[6-[[4-[1-(trifluoromethyl)cyclopropyl]pyrazol-1-yl]methyl]-2-azaspiro[3.3]heptan-2-yl]methanone] came in with a half-maximal inhibitory concentration (IC50) of 1.63 nM. In turn, `O=C(N1CC2(CC(n3cnc(C4CC4)n3)C2)C1)N1CC2(CN(Cc3sncc3C(F)(F)F)C2)C1` [Example 179, [6-(3-cyclopropyl-1,2,4-triazol-1-yl)-2-azaspiro[3.3]heptan-2-yl]-[6-[[4-(trifluoromethyl)isothiazol-5-yl]methyl]-2,6-diazaspiro[3.3]heptan-2-yl]methanone] showed an IC50 of 2 nM. In the case of `O=C(N1CC2(CC(Cc3cn(CC(F)(F)F)nn3)C2)C1)N1CC2(CC(n3cnc(C(F)(F)F)n3)C2)C1` [Example 336, [6-[[1-(2,2,2-trifluoroethyl)triazol-4-yl]methyl]-2-azaspiro[3.3]heptan-2-yl]-[6-[3-(trifluoromethyl)-1,2,4-triazol-1-yl]-2-azaspiro[3.3]heptan-2-yl]methanone], the IC50 worked out at 8.91 nM.
